Patent publication US6355690B1, “Remedy for CAG repeat expansion diseases” (Niigata University, priority 1998, dated 2002)

Columns and labels:
Type in all cases: cell-based
[1] = system: COS7 cells transfected with pEGFP-Q82-19; assay: Aggregate body formation in COS7 cells expressing truncated DRPLA protein with expanded polyglutamine stretch (GFP fusion)
Protocol: (§1) The COS7 cells were transfected with plasmid thus constructed. COS7 cells were seeded in Dulbecco's modified Eagle's medium (DMEM) containing 10% fetal calf serum the day before transfection at 3×10^4 per well of an 8-well chamber slide (Nunc Inc., Naperville, Ill.). The COS7 cells were transfected with 0.5 μg of plasmid DNA using the SuperFect transfection reagent (Qiagen, Hilden, Germany) according to the manufacturer's instructions.
(§2) To investigate whether the transglutaminase reaction is involved in the formation of aggregate bodies and the induction of apoptotic cell death, the inventors cultured COS7 cells in the presence of transglutaminase inhibitors (cystamine^28, monodansyl cadaverine (MDC)^29, and putrescine^30), after transfection. For tilis purpose, truncated DRPLA proteins were expressed as fusion proteins with green fluorescence protein (GFP), which allowed the highly sensitive observation of viable cells. The inserts of pEF-BOS-FQ82-19 and pEF-BOS-FQ19-19 were transferred into pEGFP containing the coding region for GFP. The resultant plasmid DNAs (pEGFP-FQ82-19 and pEGFP-FQ19-19) were transfected into COS7 cells. The plasmid DNA was constructed as below. The segment coding for 3 histidines, the polyglutamine stretch and 19 amino acids downstream of the polyglutamine stretch of DRPLA cDNA (pDRPLAE or pDRPLAN) was amplified by PCR using a primer (5′-GGGAATTCGGATGCACCAT-[…]-3′) containing an EcoRI linker sequence and a primer (5′-[…]-3′). PCR products were digested with EcoRI and BamHI, and subcloned into the pEGFP-N1 expression vector (Clontech, Palo Alto, Calif.). The nucleotide sequences of all the constructs were confirmed using automated DNA sequencers (PE Applied Biosystems, Foster City, Calif.).
The effects of other transglutaminase inhibitor (MDC) on the aggregate formation and apoptotic cell death were also investigated. The TUNEL assay was performed using an In Situ Cell Death Detection Kit (Boehringer Mannheim, Mannheim, Germany) according to the manufacturer's instructions. FITC-conjugated dUTP was used for the terminal deoxynucleotidyl transferase reaction. An assay for nuclear fragmentation was performed by staining cells with […] Hoechst 33342. Quantitation was performed by analyzing 100 cells expressing the FLAG epitope. Statistical analyses were performed using Student's t test.

[2] = system: COS7 cells transfected with pEGFP-Q82-19; assay: Nuclear fragmentation (apoptotic cell death), Hoechst 33342 staining
Protocol: as §1, §2
The effects of other transglutaminase inhibitor (MDC) on the aggregate formation and apoptotic cell death were also investigated. The TUNEL assay was performed using an In Situ Cell Death Detection Kit (Boehringer Mannheim, Mannheim, Germany) according to the manufacturer's instructions. […] Quantitation was performed by analyzing 100 cells expressing the FLAG epitope. […]

[3] = system: COS7 cells transfected with pEGFP-Q19-19; assay: Expression pattern of GFP fusion protein with polyglutamine stretch of normal length; settings: 1 mM cystamine
Protocol: as §1
To investigate whether the transglutaminase reaction is involved in the formation of aggregate bodies and the induction of apoptotic cell death, the inventors cultured COS7 cells in the presence of transglutaminase inhibitors (cystamine^28, monodansyl cadaverine (MDC)^29, and putrescine^30), after transfection. For tilis purpose, truncated DRPLA proteins were expressed as fusion proteins with green fluorescence protein (GFP), which allowed the highly sensitive observation of viable cells. The inserts of pEF-BOS-FQ82-19 and pEF-BOS-FQ19-19 were transferred into pEGFP containing the coding region for GFP. The resultant plasmid DNAs (pEGFP-FQ82-19 and pEGFP-FQ19-19) were transfected into COS7 cells. The plasmid DNA was constructed as below. […]

[4] = even at 100 µM of cystamine, various concentrations

SMILES	sizes of the aggregate bodies (in words) ([1]; presence of MDC compared to absence of MDC)	frequencies of the cells with aggregate formation (in words) ([1]; various concentrations of MDC)	suppression of nuclear fragmentation (in words) ([2]; various concentrations of MDC)	frequency of cells retaining a diffuse cytoplasmic expression pattern without aggregate formation ([1]; 1 mM cystamine, 60 hours after transfection, 32% in absence of cystamine, P<0.01) [%]	cells with formation of aggregate bodies ([1]; 1 mM cystamine, cultured for 60 hours, 42% without cystamine, P<0.01) [%]	suppression of aggregate bodies (in words) [1, 4]	expression patterns of the fusion protein (in words) [3]	nuclear fragmentation ([2]; 1 mM cystamine, 60 hours, 38% without cystamine, P<0.05) [%]	suppression of nuclear fragmentation (in words) [2, 4]
CN(C)c1cccc2c(S(=O)(=O)NCCCCCN)cccc12 [MDC, monodansyl cadaverine]	smaller	no significant changes	Strong suppression						
NCCSSCCN [cystamine]				56	33	suppression effects appeared in a dose-dependent manner	did not change	24	suppression effects appeared in a dose-dependent manner
